Laboratory results: patent US20140242099A1 (Synta Pharmaceuticals Corp., priority 2011, published 2014)

Key:
[1] = tested on: IL-2 production in Jurkat T-cells; assay: Inhibition of IL-2 production, Jurkat/PHA/1% FBS, ELISA; format: cell-based; settings: Homo sapiens, read-out: IL-2 inhibition Jurkat/PHA/1% FBS IC50 (nM), PHA 2.5 μg/mL, 20 hours
Method: JurkaT-cells were placed in a 96 well plate (0.5 million cells per well in 1% FBS medium), and then a test compound of this invention was added at different concentrations. After 10 minutes, the cells were activated with PHA (final concentration 2.5 μg/mL) and incubated for 20 hours at 37° C. under 5% CO2. The final volume was 200 μL. Following incubation, the cells were centrifuged, and the supernatants collected and stored at −70° C. prior to assaying for IL-2 production. A commercial ELISA kit (IL-2 Eli-pair, Diaclone Research, Besancon, France) was used to detect production of IL-2, from which dose response curves were obtained. The IC50 value was calculated as the concentration at which 50% of maximum IL-2 production after stimulation was inhibited versus a non-stimulation control.

[2] = molecular target: T1, ICRAC current (CRAC ion channels), RBL-2H3 cells (Rattus norvegicus, UniProt Q5M848); assay: Automated patch clamp (Qpatch) inhibition of ICRAC current in RBL-2H3 cells; format: cell-based; settings: compound at 100 nM, method calculates % ICRAC inhibition
T1 construct: endogenous in cells; host or cells: RBL-2H3 (rat basophilic leukemia cells)
T1 sequence (Q5M848 whole entry): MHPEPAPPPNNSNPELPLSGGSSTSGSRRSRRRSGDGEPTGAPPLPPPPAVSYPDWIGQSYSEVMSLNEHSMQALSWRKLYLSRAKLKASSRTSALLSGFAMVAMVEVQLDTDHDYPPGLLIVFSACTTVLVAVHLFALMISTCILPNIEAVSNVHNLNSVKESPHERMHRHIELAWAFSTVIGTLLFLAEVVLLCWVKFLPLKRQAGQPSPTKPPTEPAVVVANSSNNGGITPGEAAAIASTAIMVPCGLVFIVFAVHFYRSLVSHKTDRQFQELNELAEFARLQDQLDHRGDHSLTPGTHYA
Method: Automated patch clamp experiments are conducted with the QPatch 16 (Sophion Bioscience, Ballerup, Denmark) at room temperature (21-25° C.). Immediately following the establishment of giga-seal whole-cell configuration, the cells membrane potential is clamped at 0 mV. Voltage ramps of 50 ms duration spanning the voltage range of −100 to +100 mV are then stimulated at a rate of 0.33 Hz. Currents are filtered at 2.9 kHz and digitized at 200 μs intervals. Capacitive currents and series resistance are determined and corrected before each voltage ramp using the automatic capacitance compensation.
RBL-2H3 are grown in DMEM media supplemented with 10% fetal bovine serum, penicillin 100 U/ml and streptomycin […] in an atmosphere of 95% air/5% CO2. Cells are grown to confluence in 175 cm^2 tissue culture flask. On the experimental day, cells harvested with 0.25% trypsin/0.02% EDTA and resuspended in extracellular solution at density of 5×10^6 cells/ml.
The intracellular solution contains Cs-Glutamate 90 mM; NaCl 8 mM; MgCl2 3 mM; CsCl 20 mM; CsBAPTA 20 mM; HEPES 10 mM; InsP3 0.02 mM; pH=7.2 adjusted with CsOH.
The extracellular solution contains NMDGCl 120 mM; KCl 5.4 mM; CsCl 10 mM; CaCl2 10 mM; MgCl2 1 mM; HEPES 10 mM; Glucose 5.5 mM; at pH=7.4 adjusted with HCl.
ICRAC currents are measured using 50 msec voltage ramps between −100 mV to +100 mV. The voltage ramps are stimulated every 3 seconds for at least 570 seconds. The maximum ICRAC current is allowed to develop for at least 135 seconds. Compounds diluted in extracellular solutions are then applied twice, 30 seconds apart. After incubating the cells with compound for 435 seconds, a reference solution is applied at the end of the experiment. The reference solution is a Ca^2+ free extracellular solution.
Off-line analysis with the Qpatch software is used to plot the current value at −80 mV for each ramp trace against time. The resulting current versus time data is then exported into a Microsoft Excel spreadsheet. The ICRAC membrane currents are separated from the cells basal background currents by either subtracting out the average membrane current values during the first 1-3 traces, or the average membrane current values obtained with the reference solution at the end of the experiment. The % ICRAC inhibition in each cell is calculated by comparing the amount of current just prior to the first compound addition to the amount of current after the cells has been perfused with the compound for at least 400 seconds.

| IC50 [1] [nM] | inhibition at 0.1 µM [2] [%] | Compound |
| --- | --- | --- |
| 27 | 80 | Cc1ccc(-c2nc(-c3ccc(C(=O)Nc4c(F)cccc4F)cc3)c(C)s2)cn1 [Compound 1] |
| 33 | 61 | Cc1cc(C)c(NC(=O)c2ccc(-c3cc(-c4nnn(C)n4)ccc3Cl)cc2)cn1 [Compound 2, 2′-chloro-N-(4,6-dimethylpyridin-3-yl)-5′-(2-methyl-2H-tetrazol-5-yl)-[1,1′-biphenyl]-4-carboxamide] |
| 46 | 36 | Cc1cc(C)c(NC(=O)c2ccc(-c3cc(-c4nnn(C)n4)ccc3C)cc2)cn1 [Compound 3, N-(4,6-dimethylpyridin-3-yl)-2′-methyl-5′-(2-methyl-2H-tetrazol-5-yl)-[1,1′-biphenyl]-4-carboxamide] |
| – | 36 | Cc1ccncc1C(=O)Nc1ccc(-c2cc(-c3nnn(C)n3)ccc2Cl)cn1 [Compound 4, N-(5-(2-chloro-5-(2-methyl-2H-tetrazol-5-yl)phenyl)pyridin-2-yl)-4-methylnicotinamide] |
| 32 | 40 | CCc1sc(-c2cnc(C)cn2)nc1-c1ccc(C(=O)Nc2cnc(C)cc2C)cc1 [Compound 5] |
| 38 | 93 | CCc1sc(-c2cc(C)on2)nc1-c1ccc(C(=O)Nc2cncnc2C)cc1 [Compound 6] |
| 10 | 98 | Cn1cc(-c2ccc(Cl)c(-c3cnc(NC(=O)c4cccc(F)c4F)cn3)c2)cn1 [Compound 7, N-(5-(2-chloro-5-(1-methyl-1H-pyrazol-4-yl)phenyl)pyrazin-2-yl)-2,3-difluorobenzamide] |
| 14 | 82 | Cn1cc(-c2ccc(Cl)c(-c3cnc(NC(=O)c4ccc(F)cc4F)cn3)c2)cn1 [Compound 8, N-(5-(2-chloro-5-(1-methyl-1H-pyrazol-4-yl)phenyl)pyrazin-2-yl)-2,4-difluorobenzamide] |
| 10 | 73 | CCc1sc(-c2cc(C)on2)nc1-c1ccc(NC(=O)c2cncc(Cl)c2C)nc1 [Compound 9] |
